In ChEMBL document CHEMBL5257082, “Bacterial GTPases as druggable targets to tackle antimicrobial resistance” (Bioorg Med Chem Lett, 2023):
≈ marks a conversion by molar mass, not a printed value.

Tests used:
Staphylococcus aureus [1] = test: Antibacterial activity against Staphylococcus aureus; assay type: functional
Escherichia coli = test: Antibacterial activity against Escherichia coli; assay type: functional
Staphylococcus aureus [2] = test: Antibacterial activity against methicillin-resistant Staphylococcus aureus; assay type: functional
Staphylococcus aureus [3] = test: Antibacterial activity against vancomycin-resistant Staphylococcus aureus; assay type: functional
[4] = Intrinsic clearance in BALB/c mouse at 24 mg/kg, iv; assay type: ADME, organism-based; details: in vivo
Staphylococcus aureus [5] = test: Antibacterial activity against linezolid-nonsusceptible Staphylococcus aureus; assay type: functional
Bacillus subtilis = test: Antibacterial activity against Bacillus subtilis; assay type: functional
Streptococcus pneumoniae = test: Antibacterial activity against Streptococcus pneumoniae; assay type: functional
Enterococcus faecalis = test: Antibacterial activity against Enterococcus faecalis; assay type: functional
Streptococcus pyogenes = test: Antibacterial activity against Streptococcus pyogenes; assay type: functional
[6] = target: T1, Cell division protein FtsZ (Staphylococcus aureus, UniProt P0A031); test: Inhibition of Staphylococcus aureus FTsZ GTPase activity
T1 sequence (P0A031 whole entry): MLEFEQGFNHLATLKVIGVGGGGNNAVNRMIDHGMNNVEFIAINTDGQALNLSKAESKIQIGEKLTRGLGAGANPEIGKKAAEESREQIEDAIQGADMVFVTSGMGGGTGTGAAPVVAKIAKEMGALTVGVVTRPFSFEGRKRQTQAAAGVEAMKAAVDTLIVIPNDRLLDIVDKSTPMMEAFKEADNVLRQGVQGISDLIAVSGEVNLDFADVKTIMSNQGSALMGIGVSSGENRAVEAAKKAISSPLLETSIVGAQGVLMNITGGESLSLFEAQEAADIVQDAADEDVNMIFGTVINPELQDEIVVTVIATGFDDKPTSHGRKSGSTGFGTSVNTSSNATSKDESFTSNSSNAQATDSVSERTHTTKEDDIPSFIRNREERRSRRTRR

Neisseria gonorrhoeae = test: Antibacterial activity against Neisseria gonorrhoeae; assay type: functional
Haemophilus influenzae = test: Antibacterial activity against Haemophilus influenzae; assay type: functional
Enterococcus faecium = test: Antibacterial activity against Enterococcus faecium; assay type: functional
Klebsiella pneumoniae = test: Antibacterial activity against Klebsiella pneumoniae; assay type: functional
Pseudomonas aeruginosa = test: Antibacterial activity against Pseudomonas aeruginosa; assay type: functional
Acinetobacter baumannii = test: Antibacterial activity against Acinetobacter baumannii; assay type: functional
Neisseria meningitidis = test: Antibacterial activity against Neisseria meningitidis; assay type: functional
Micrococcus luteus = test: Antibacterial activity against Micrococcus luteus; assay type: functional

| SMILES | MIC (Staphylococcus aureus [1]) | MIC (Escherichia coli) | MIC (Staphylococcus aureus [2]) | MIC (Enterococcus faecalis) | further results |
| --- | --- | --- | --- | --- | --- |
| CN1CCC(C(=O)NC(=O)c2c(F)ccc(OCc3nc4cc(C(F)(F)F)cnc4s3)c2F)CC1 | – | – | 2 µg/mL (≈ 3.89 µM) | – | MIC (Staphylococcus aureus [3]): 2 µg/mL (≈ 3.89 µM); CL [4]: 9.4 mL/min/kg; MIC (Staphylococcus aureus [5]): 2 µg/mL (≈ 3.89 µM) |
| NC(=O)c1c(F)ccc(OCc2nc3cc(Cl)cnc3s2)c1F | – | > 64 µg/mL | 1 µg/mL (≈ 2.81 µM) | > 64 µg/mL | MIC (Bacillus subtilis): 1 µg/mL (≈ 2.81 µM); MIC (Streptococcus pneumoniae): > 64 µg/mL; MIC (Streptococcus pyogenes): > 64 µg/mL; CL [4]: 55.11 mL/min/kg; IC50 [6]: 150 nM |
| C/C=C\C=C\[C@@H]1C[C@](O)([C@H](CC)C(=O)NC/C=C/C=C(\C)[C@H](OC)[C@H](C)C2O[C@H](/C=C/C=C/C=C(\C)C(=O)c3c(O)cc[nH]c3=O)[C@H](O)[C@@H]2O)[C@H](O)[C@H](O)C1(C)C (some centres undefined) | > 32 µg/mL | > 128 µg/mL | – | > 32 µg/mL | MIC (Neisseria gonorrhoeae): 0.06 µg/mL (≈ 0.0755 µM); MIC (Haemophilus influenzae): 4 µg/mL (≈ 5.03 µM); MIC (Enterococcus faecium): 2 µg/mL (≈ 2.52 µM) |
| CC/C=C/[C@@H](OC(N)=O)[C@@H](Cl)[C@H](O)CC(=O)[C@@H](O)[C@H](O)C(C)/C(Cl)=C/C=C/C=C(C)/C=C/C=C/C(=O)O[C@@H]1CC(C(=O)O)CC[C@@H]1O (some centres undefined) | 2 µg/mL (≈ 2.85 µM) | – | – | – | MIC (Pseudomonas aeruginosa): > 32 µg/mL; MIC (Acinetobacter baumannii): > 32 µg/mL |
| CC(=O)O[C@H]1C[C@@]2(C)[C@@H](C[C@@H](O)[C@H]3[C@@]4(C)CC[C@@H](O)[C@@H](C)[C@@H]4CC[C@@]32C)/C1=C(\CCC=C(C)C)C(=O)O [FUSIDIC ACID] | – | > 32 µg/mL | 0.25 µg/mL (≈ 0.484 µM) | 2 µg/mL (≈ 3.87 µM) | MIC (Neisseria meningitidis): 0.25 µg/mL (≈ 0.484 µM); MIC (Micrococcus luteus): 0.5 µg/mL (≈ 0.968 µM); MIC (Streptococcus pyogenes): 16 µg/mL (≈ 31 µM) |

Now from value to molecule, other results behind:

| MIC (Staphylococcus aureus [1]) | MIC (Escherichia coli) | SMILES | MIC (Staphylococcus aureus [2]) | MIC (Enterococcus faecalis) | further results |
| --- | --- | --- | --- | --- | --- |
| > 25 µg/mL | > 200 µg/mL | Cc1cc(Cl)ccc1OC(C)C(=O)Nc1ccc(C(=O)Nc2ccccc2C(=O)O)cc1 (centres undefined) | – | – | – |
| > 50 µg/mL | > 200 µg/mL | COc1ccc(/C=C(\C#N)C(=O)Nc2cccc(C(=O)O)c2)cc1OC(=O)c1cccc2ccccc12 | – | – | – |
| > 50 µg/mL | > 200 µg/mL | O=C(O)c1[nH]c2ccc(Cl)cc2c1CC(=O)N1CCN(c2ccc(C(F)(F)F)cc2)CC1 | – | – | – |
| 2 µg/mL (≈ 2.38 µM) | 32 µg/mL (≈ 38.1 µM) | CO[C@@H]1[C@H](O)[C@@H](OC)[C@H](O[C@@H](C)[C@@H](O)/C=C/C=C/C=C/C(=O)[C@@H](C)[C@@H](O)[C@H](C)C2C/C=C/C=C/C=C/[C@H](O)C(=O)/C(C)=C/C=C/C(C)=C/[C@@H](O)/C(C)=C/CC(=O)O2)O[C@@H]1C (some centres undefined) | – | 32 µg/mL (≈ 38.1 µM) | MIC (Klebsiella pneumoniae): > 128 µg/mL; MIC (Pseudomonas aeruginosa): 32 µg/mL (≈ 38.1 µM); MIC (Acinetobacter baumannii): 32 µg/mL (≈ 38.1 µM) |
